Reference: article PMC10436550, “Subacute toxicity evaluations of LPM3480392 in rats, a full µ-opioid receptor biased agonist” (Frontiers in Pharmacology, 2023)
pEC50: −log10 of the molar value.

Assays:
[1] = Food consumption, 4-week subacute toxicity study; assay type: in vivo, Sprague Dawley (SD) rats; conditions: male rats
Protocol: Food consumption of all surviving animals was recorded twice a week during the dosing phase and then once a week in last 2 weeks of recovery phase.

Sprague Dawley (SD) rats [2] = test: Mortality and clinical observation, 4-week subacute toxicity study; assay type: in vivo, rat; conditions: for Mild to severe increased activity, starting day: dosing phase
Protocol: For all surviving animals, a morning and an afternoon observation every day were conducted for the moribundity and death. Daily observation was carried out once within 1 h after each dosing in dosing phase, and at least once daily in recovery phase, including mental status, food and water consumption, hair, discharge, mortality and other toxic reactions. Detailed observation was performed once every week, including appearance, movement, mental status, gland secretions, skin and mucosa color, respiration, genitals, mortality and other toxic reactions.
The animals found dead were recorded for the observation or death time, and weighed followed by a complete postmortem examination to explore the cause of death. All required organs and tissue as listed in the Section 2.11 and other tissues with gross lesions were performed with histopathology examination. Animals found dead which could not be examined immediately were temporarily refrigerated.

Sprague Dawley (SD) rats [3] = test: Gross necropsy; assay type: in vivo, rat; conditions: end of dosing phase and recovery phase
Protocol: Complete gross necropsies were conducted on all surviving animals at the end of treatment (the day after the last dosing) and recovery periods. The following selected organs were weighed and evaluated in terms of organ/body or organ/brain weight ratios: brain, kidneys, adrenals, testes, ovaries, uterus, epididymides, thymus, spleen, heart and liver. Paired organs were weighed together. Organ-to-body weight ratio = Organ weight(g)/Body weight(g) × 100%, and Organ-to-brain weight ratio = Organ weight(g)/Brain weight(g) × 100%.

µ-opioid receptor (MOR) = test system: µ-opioid receptor (MOR); parameters: method as in Yang et al., 2022; conditions: ref Yang et al., 2022, cited from earlier work

In the case of Fc1ccc([C@]2(CCNCc3cccc(Cl)c3)CCO[C@]3(CCOC3)C2)nc1 [LPM3480392], the Food consumption ([1]; 0.6 mg/kg/day, Day 14) was 21.0 ± 1.3 g/animal/cage/day, the “Food consumption change rate” value ([1]; 0.6 mg/kg/day, Day 14) was −17.32% and the Food consumption ([1]; 0.6 mg/kg/day, Day 17) was 21.1 ± 1.9 g/animal/cage/day. For the same compound, the “Food consumption change rate” value ([1]; 0.6 mg/kg/day, Day 17) was −11.34%, the Food consumption ([1]; 0.6 mg/kg/day, Day 21) was 21.6 ± 0.8 g/animal/cage/day and the “Food consumption change rate” value ([1]; 0.6 mg/kg/day, Day 21) was −9.24%. For the same compound, the Food consumption ([1]; 0.6 mg/kg/day, Day 24) was 20.6 ± 1.0 g/animal/cage/day, the “Food consumption change rate” value ([1]; 0.6 mg/kg/day, Day 24) was −8.04% and the Food consumption ([1]; 0.6 mg/kg/day, Day 28) was 22.9 ± 1.2 g/animal/cage/day. The “Food consumption change rate” value ([1]; 0.6 mg/kg/day, Day 28) was −5.76%, the Food consumption ([1]; 0.6 mg/kg/day, Recovery day 20) was 25.2 g/animal/cage/day and the “Food consumption change rate” value ([1]; 0.6 mg/kg/day, Recovery day 20) was 0.40%. The Food consumption ([1]; 0.6 mg/kg/day, Recovery day 27) was 22.3 g/animal/cage/day, the “Food consumption change rate” value ([1]; 0.6 mg/kg/day, Recovery day 27) was 0.90% and the Food consumption ([1]; 1.2 mg/kg/day, Day 3) was 19.2 ± 0.9 g/animal/cage/day. The “Food consumption change rate” value ([1]; 1.2 mg/kg/day, Day 3) was −5.42%, the Food consumption ([1]; 1.2 mg/kg/day, Day 7) was 20.5 ± 0.7 g/animal/cage/day and the “Food consumption change rate” value ([1]; 1.2 mg/kg/day, Day 7) was −9.69%. The Food consumption ([1]; 1.2 mg/kg/day, Day 10) was 20.4 ± 1.8 g/animal/cage/day, the “Food consumption change rate” value ([1]; 1.2 mg/kg/day, Day 10) was −26.88% and the Food consumption ([1]; 1.2 mg/kg/day, Day 14) was 20.2 ± 0.7 g/animal/cage/day. For the same compound, the “Food consumption change rate” value ([1]; 1.2 mg/kg/day, Day 14) was −20.47%, the Food consumption ([1]; 1.2 mg/kg/day, Day 17) was 20.5 ± 1.7 g/animal/cage/day and the “Food consumption change rate” value ([1]; 1.2 mg/kg/day, Day 17) was −13.87%. The Food consumption ([1]; 1.2 mg/kg/day, Day 21) was 23.2 ± 1.2 g/animal/cage/day, the “Food consumption change rate” value ([1]; 1.2 mg/kg/day, Day 21) was −2.52% and the Food consumption ([1]; 1.2 mg/kg/day, Day 24) was 22.2 ± 1.1 g/animal/cage/day. For the same compound, the “Food consumption change rate” value ([1]; 1.2 mg/kg/day, Day 24) was −0.89%, the Food consumption ([1]; 1.2 mg/kg/day, Day 28) was 22.5 ± 1.3 g/animal/cage/day and the “Food consumption change rate” value ([1]; 1.2 mg/kg/day, Day 28) was −7.41%. For the same compound, the Food consumption ([1]; 1.2 mg/kg/day, Recovery day 20) was 24.5 g/animal/cage/day, the “Food consumption change rate” value ([1]; 1.2 mg/kg/day, Recovery day 20) was −2.39% and the Food consumption ([1]; 1.2 mg/kg/day, Recovery day 27) was 22.6 g/animal/cage/day. The “Food consumption change rate” value ([1]; 1.2 mg/kg/day, Recovery day 27) was 2.26%, the Food consumption ([1]; 2.4 mg/kg/day, Day 3) was 17.8 ± 0.8 g/animal/cage/day and the “Food consumption change rate” value ([1]; 2.4 mg/kg/day, Day 3) was −12.32%. For the same compound, the Food consumption ([1]; 2.4 mg/kg/day, Day 7) was 20.0 ± 2.3 g/animal/cage/day, the “Food consumption change rate” value ([1]; 2.4 mg/kg/day, Day 7) was −11.89% and the Food consumption ([1]; 2.4 mg/kg/day, Day 10) was 20.1 ± 1.9 g/animal/cage/day. The “Food consumption change rate” value ([1]; 2.4 mg/kg/day, Day 10) was −27.96%, the Food consumption ([1]; 2.4 mg/kg/day, Day 14) was 17.3 ± 5.2 g/animal/cage/day and the “Food consumption change rate” value ([1]; 2.4 mg/kg/day, Day 14) was −31.89%. The Food consumption ([1]; 2.4 mg/kg/day, Day 17) was 20.1 ± 0.7 g/animal/cage/day, the “Food consumption change rate” value ([1]; 2.4 mg/kg/day, Day 17) was −15.55% and the Food consumption ([1]; 2.4 mg/kg/day, Day 21) was 23.2 ± 1.1 g/animal/cage/day. For the same compound, the “Food consumption change rate” value ([1]; 2.4 mg/kg/day, Day 21) was −2.52%, the Food consumption ([1]; 2.4 mg/kg/day, Day 24) was 22.1 ± 3.0 g/animal/cage/day and the “Food consumption change rate” value ([1]; 2.4 mg/kg/day, Day 24) was −1.34%. For the same compound, the Food consumption ([1]; 2.4 mg/kg/day, Day 28) was 22.5 ± 1.9 g/animal/cage/day, the “Food consumption change rate” value ([1]; 2.4 mg/kg/day, Day 28) was −7.41% and the Food consumption ([1]; 2.4 mg/kg/day, Recovery day 20) was 24.0 g/animal/cage/day. The “Food consumption change rate” value ([1]; 2.4 mg/kg/day, Recovery day 20) was −4.38%, the Food consumption ([1]; 2.4 mg/kg/day, Recovery day 27) was 23.8 g/animal/cage/day and the “Food consumption change rate” value ([1]; 2.4 mg/kg/day, Recovery day 27) was 7.69%. The “Mild to severe increased activity, starting day” value (Sprague Dawley (SD) rats [2]; 0.6 mg/kg/day) was 7, the “Mild to severe increased activity, starting day” value (Sprague Dawley (SD) rats [2]; 1.2 mg/kg/day) was 4 and the “Increased muscle tone, incidence” value (Sprague Dawley (SD) rats [2]; 1.2 mg/kg/day, first 5 days of dosing phase) was 33/38. The “Deep respiration or rale, incidence” value (Sprague Dawley (SD) rats [2]; 2.4 mg/kg/day) was 4/36, the “Hunchback, incidence” value (Sprague Dawley (SD) rats [2]; 2.4 mg/kg/day) was 1/36 and the “Piloerection, incidence” value (Sprague Dawley (SD) rats [2]; 2.4 mg/kg/day) was 1/36. The “Found dead (1 male and 1 female)” value (Sprague Dawley (SD) rats [2]; 2.4 mg/kg/day, Days 3 and 15) was 2/30, the “Decreased activity, incidence” value (Sprague Dawley (SD) rats [2]; 2.4 mg/kg/day, a few time points during dosing phase) was 26/36 and the “Mild to severe increased activity, starting day” value (Sprague Dawley (SD) rats [2]; 2.4 mg/kg/day) was 1. The “Increased muscle tone, incidence” value (Sprague Dawley (SD) rats [2]; 2.4 mg/kg/day, mostly complete dosing phase) was 36/36, the “Gross necropsy findings in main organs” value (Sprague Dawley (SD) rats [3]) was “no LPM3480392-related abnormalities” and the “Emax, β-arrestin-2 recruitment activity” value (µ-opioid receptor (MOR)) was 1.6%. For the same compound, the pEC50 (µ-opioid receptor (MOR); read-out: EC50, β-arrestin-2 recruitment activity) was < 4.52.
